Source: PMC5218480 (PLoS ONE, 2017)

Tested on: MV-4-11 cells
Experiment: Gene expression microarray analysis (Affymetrix PrimeView) and GSEA
Assay type: cell-based, human
Design: RFU PODN (11730768_x_at) / Fold change /veh PODN (11730768_x_at) / RFU LINC00158 (11744669_a_at) / Fold change /veh LINC00158 (11744669_a_at) / RFU DUSP10 (11751237_a_at) / Fold change /veh DUSP10 (11751237_a_at) / RFU ID3 (11757404_x_at) / Fold change /veh ID3 (11757404_x_at) / RFU PLEKHG5 (11737974_s_at) / Fold change /veh PLEKHG5 (11737974_s_at) / RFU LRRC4B (11730491_at) / Fold change /veh LRRC4B (11730491_at) / RFU GIMAP4 (11747438_a_at) / Fold change /veh GIMAP4 (11747438_a_at) / RFU KRT8 (11758183_x_at) / Fold change /veh KRT8 (11758183_x_at) / RFU CNN1 (11734310_a_at) / Fold change /veh CNN1 (11734310_a_at) / RFU VPS37D (11726825_at) / Fold change /veh VPS37D (11726825_at) / RFU C10orf10 (11716522_x_at) / Fold change /veh C10orf10 (11716522_x_at) / RFU KIR2DL2 /// KIR2DL4 /// KIR2DL5A /// KIR2DL5B /// KIR2DS1 /// KIR2DS2 /// KIR2DS3 /// KIR2DS4 /// KIR3DL3 /// KIR3DL3 /// KIR3DS1 (11738374_at) / Fold change /veh KIR2DL2 /// KIR2DL4 /// KIR2DL5A /// KIR2DL5B /// KIR2DS1 /// KIR2DS2 /// KIR2DS3 /// KIR2DS4 /// KIR3DL3 /// KIR3DL3 /// KIR3DS1 (11738374_at) / RFU C1QL1 (11718748_at) / Fold change /veh C1QL1 (11718748_at) / RFU TMPRSS4 (11747572_a_at) / Fold change /veh TMPRSS4 (11747572_a_at) / RFU HAMP (11756126_x_at) / Fold change /veh HAMP (11756126_x_at) / RFU RNFT2 (11725882_a_at) / Fold change /veh RNFT2 (11725882_a_at) / RFU NR4A2 (11747474_a_at) / Fold change /veh NR4A2 (11747474_a_at) / RFU ABCC12 (11746883_a_at) / Fold change /veh ABCC12 (11746883_a_at) / RFU TMEM136 (11760407_x_at) / Fold change /veh TMEM136 (11760407_x_at) / RFU CLDN22 /// WWC2 (11732394_at) / Fold change /veh CLDN22 /// WWC2 (11732394_at) / RFU HLA-DPB1 (11760878_x_at) / Fold change /veh HLA-DPB1 (11760878_x_at) / RFU SPINT1 (11716480_a_at) / Fold change /veh SPINT1 (11716480_a_at) / RFU GAP43 (11754022_s_at) / Fold change /veh GAP43 (11754022_s_at) / RFU A4GNT (11735810_at) / Fold change /veh A4GNT (11735810_at) / RFU PRB3 (11715151_x_at) / Fold change /veh PRB3 (11715151_x_at) / RFU TUBB4B (11761932_at) / Fold change /veh TUBB4B (11761932_at) / RFU CAPN14 (11732068_a_at) / Fold change /veh CAPN14 (11732068_a_at) / RFU TMCC2 (11721928_a_at) / Fold change /veh TMCC2 (11721928_a_at) / RFU IRGQ (11745062_a_at) / Fold change /veh IRGQ (11745062_a_at) / RFU FAM174B (11720279_a_at) / Fold change /veh FAM174B (11720279_a_at) / RFU TMPRSS4 (11748680_a_at) / Fold change /veh TMPRSS4 (11748680_a_at) / RFU FAM212B (11763350_a_at) / Fold change /veh FAM212B (11763350_a_at) / RFU PLEKHG5 (11743358_a_at) / Fold change /veh PLEKHG5 (11743358_a_at) / RFU ZSCAN30 (11745921_a_at) / Fold change /veh ZSCAN30 (11745921_a_at) / RFU CMKLR1 (11741424_a_at) / Fold change /veh CMKLR1 (11741424_a_at) / RFU LOC101060620 /// MAPK8IP1 (11723275_at) / Fold change /veh LOC101060620 /// MAPK8IP1 (11723275_at) / RFU SPTSSB (11747773_x_at) / Fold change /veh SPTSSB (11747773_x_at) / RFU PRSS12 (11739890_at) / Fold change /veh PRSS12 (11739890_at) / RFU BIN1 (11741810_x_at) / Fold change /veh BIN1 (11741810_x_at) / RFU WNT11 (11732464_a_at) / Fold change /veh WNT11 (11732464_a_at) / RFU C10orf10 (11716521_a_at) / Fold change /veh C10orf10 (11716521_a_at) / RFU C5orf56 (11738089_at) / Fold change /veh C5orf56 (11738089_at) / RFU CYB561 (11721691_x_at) / Fold change /veh CYB561 (11721691_x_at) / RFU ANKRD19P (11752326_a_at) / Fold change /veh ANKRD19P (11752326_a_at) / RFU OR2T12 /// OR2T33 /// OR2T8 (11738714_s_at) / Fold change /veh OR2T12 /// OR2T33 /// OR2T8 (11738714_s_at) / RFU VCAN (11748164_a_at) / Fold change /veh VCAN (11748164_a_at) / RFU JSRP1 (11732532_at) / Fold change /veh JSRP1 (11732532_at) / RFU KRTAP10-11 (11738290_x_at) / Fold change /veh KRTAP10-11 (11738290_x_at) / RFU MYO3A (11730013_a_at) / Fold change /veh MYO3A (11730013_a_at) / RFU EBF3 (11725865_a_at) / Fold change /veh EBF3 (11725865_a_at) / RFU CAMK2N1 (11719241_x_at) / Fold change /veh CAMK2N1 (11719241_x_at) / RFU C5orf56 (11738088_a_at) / Fold change /veh C5orf56 (11738088_a_at) / RFU OLFML3 (11715873_a_at) / Fold change /veh OLFML3 (11715873_a_at) / RFU LOC100653217 /// NTM (11731650_a_at) / Fold change /veh LOC100653217 /// NTM (11731650_a_at) / RFU MAPK11 (11762145_a_at) / Fold change /veh MAPK11 (11762145_a_at) / RFU FIZ1 (11724087_x_at) / Fold change /veh FIZ1 (11724087_x_at) / RFU OASL (11726364_x_at) / Fold change /veh OASL (11726364_x_at) / RFU SOX15 (11748057_x_at) / Fold change /veh SOX15 (11748057_x_at) / RFU CD79A (11719716_a_at) / Fold change /veh CD79A (11719716_a_at) / RFU HIST1H1D (11736915_at) / Fold change /veh HIST1H1D (11736915_at) / RFU CASKIN2 (11723855_a_at) / Fold change /veh CASKIN2 (11723855_a_at) / RFU LOC730098 (11760151_x_at) / Fold change /veh LOC730098 (11760151_x_at) / RFU OR4N2 (11742367_at) / Fold change /veh OR4N2 (11742367_at) / RFU PRRT2 (11749266_a_at) / Fold change /veh PRRT2 (11749266_a_at) / RFU SNX32 (11753110_a_at) / Fold change /veh SNX32 (11753110_a_at) / RFU CDHR5 (11726645_a_at) / Fold change /veh CDHR5 (11726645_a_at) / RFU RCAN1 (11760418_a_at) / Fold change /veh RCAN1 (11760418_a_at) / RFU FAM167A (11723789_a_at) / Fold change /veh FAM167A (11723789_a_at) / RFU FAM26E (11764081_at) / Fold change /veh FAM26E (11764081_at) / RFU ISYNA1 (11749810_s_at) / Fold change /veh ISYNA1 (11749810_s_at) / RFU ACY1 (11761880_at) / Fold change /veh ACY1 (11761880_at) / RFU 11764098_at / Fold change /veh 11764098_at / RFU SAMD14 (11745864_x_at) / Fold change /veh SAMD14 (11745864_x_at) / RFU NPB (11741838_a_at) / Fold change /veh NPB (11741838_a_at) / RFU TMPRSS6 (11731388_a_at) / Fold change /veh TMPRSS6 (11731388_a_at) / RFU KRTAP10-2 (11738614_at) / Fold change /veh KRTAP10-2 (11738614_at) / RFU ARHGAP8 /// PRR5-ARHGAP8 (11727945_x_at) / Fold change /veh ARHGAP8 /// PRR5-ARHGAP8 (11727945_x_at) / RFU KRTAP5-7 /// NADSYN1 (11734609_at) / Fold change /veh KRTAP5-7 /// NADSYN1 (11734609_at) / RFU RASL12 (11751679_a_at) / Fold change /veh RASL12 (11751679_a_at) / RFU CDKN2B (11736163_a_at) / Fold change /veh CDKN2B (11736163_a_at) / RFU PRF1 (11729649_at) / Fold change /veh PRF1 (11729649_at) / RFU, ZNF638 /// ZNF638-IT1 / Fold change vs veh, ZNF638 /// ZNF638-IT1 / RFU, PANK3 / Fold change vs veh, PANK3 / RFU, SH3YL1 / Fold change vs veh, SH3YL1 / RFU, ZEB2 / Fold change vs veh, ZEB2 / RFU, NRIP1 / Fold change vs veh, NRIP1 / RFU, PTTG1IP / Fold change vs veh, PTTG1IP / RFU, CAPN2 / Fold change vs veh, CAPN2 / RFU, MED14 / Fold change vs veh, MED14 / RFU, SNORA58 / Fold change vs veh, SNORA58 / RFU, C1orf63 / Fold change vs veh, C1orf63 / RFU, LRRFIP1 / Fold change vs veh, LRRFIP1 / RFU, NDUFAF7 / Fold change vs veh, NDUFAF7 / RFU, SLC12A2 / Fold change vs veh, SLC12A2 / RFU, IBTK / Fold change vs veh, IBTK / RFU, ESF1 / Fold change vs veh, ESF1 / Fold change vs veh, TMEM50B / RFU, TAOK1 / Fold change vs veh, TAOK1 / RFU, ACBD3 / Fold change vs veh, ACBD3 / RFU, TMA16 / Fold change vs veh, TMA16 / RFU, RWDD3 / Fold change vs veh, RWDD3 / RFU, BCAT1 / Fold change vs veh, BCAT1 / RFU, EDEM3 / Fold change vs veh, EDEM3 / RFU, TMEM33 / Fold change vs veh, TMEM33 / RFU, WDR75 / Fold change vs veh, WDR75 / RFU, AHCTF1 / Fold change vs veh, AHCTF1 / RFU, TFRC / Fold change vs veh, TFRC / RFU, ZDHHC17 / Fold change vs veh, ZDHHC17 / RFU, NOM1 / Fold change vs veh, NOM1 / RFU, ARL8B / Fold change vs veh, ARL8B / RFU, ZBTB11 / Fold change vs veh, ZBTB11 / RFU, TAMM41 / Fold change vs veh, TAMM41 / RFU, KIAA1704 /// LOC100996395 / Fold change vs veh, KIAA1704 /// LOC100996395 / RFU, ING1 / Fold change vs veh, ING1 / RFU, TRMT61B / Fold change vs veh, TRMT61B / RFU, FUBP3 / Fold change vs veh, FUBP3 / RFU, TP53 / Fold change vs veh, TP53 / RFU, TNKS2 / Fold change vs veh, TNKS2 / RFU, ZFP14 / Fold change vs veh, ZFP14 / RFU, ACTR2 / Fold change vs veh, ACTR2 / RFU, PPP3R1 / Fold change vs veh, PPP3R1 / RFU, PIK3R1 / Fold change vs veh, PIK3R1 / RFU, HNRNPA1 / Fold change vs veh, HNRNPA1 / RFU, RNF170 / Fold change vs veh, RNF170 / RFU, ZNF28 / Fold change vs veh, ZNF28 / RFU, RNGTT / Fold change vs veh, RNGTT / RFU, OGT / Fold change vs veh, OGT / RFU, BRD1 / Fold change vs veh, BRD1 / RFU, MARS / Fold change vs veh, MARS / RFU, ZNF655 / Fold change vs veh, ZNF655 / RFU, FAHD1 / Fold change vs veh, FAHD1 / RFU, BDP1 / Fold change vs veh, BDP1 / RFU, LRRCC1 / Fold change vs veh, LRRCC1 / RFU, ARID1A / Fold change vs veh, ARID1A / RFU, ZNF146 / Fold change vs veh, ZNF146 / RFU, ZNF330 / Fold change vs veh, ZNF330 / RFU, GPN3 / Fold change vs veh, GPN3 / RFU, C9orf123 / Fold change vs veh, C9orf123 / RFU, N4BP2L2 / Fold change vs veh, N4BP2L2 / RFU, ARFIP1 / Fold change vs veh, ARFIP1 / RFU, FAM179B / Fold change vs veh, FAM179B / RFU, BCL10 / Fold change vs veh, BCL10 / RFU, UHRF1BP1L / Fold change vs veh, UHRF1BP1L / RFU, BET1 / Fold change vs veh, BET1 / RFU, CNOT2 / Fold change vs veh, CNOT2 / RFU, ZNF268 / Fold change vs veh, ZNF268 / Fold change vs veh, ZNF507 / RFU, DGCR2 / Fold change vs veh, DGCR2 / RFU, WDSUB1 / Fold change vs veh, WDSUB1 / Fold change vs veh, HSP90B1 /// MIR3652 / RFU, ADSS / Fold change vs veh, ADSS / RFU, GK / Fold change vs veh, GK / RFU, ZNF148 / Fold change vs veh, ZNF148 / RFU, TAF9 / Fold change vs veh, TAF9 / RFU, SLC1A5 / Fold change vs veh, SLC1A5 / RFU, SLMO2 / Fold change vs veh, SLMO2 / RFU, ABCC4 / Fold change vs veh, ABCC4 / RFU, LOC101060439 /// RAP1B / Fold change vs veh, LOC101060439 /// RAP1B / RFU, RFX7 / Fold change vs veh, RFX7 / RFU, GTPBP10 / Fold change vs veh, GTPBP10 / RFU, CNEP1R1 / Fold change vs veh, CNEP1R1 / RFU, BIVM-ERCC5 /// ERCC5 / Fold change vs veh, BIVM-ERCC5 /// ERCC5 / RFU, ILF3 / Fold change vs veh, ILF3 / RFU 11762660_at / Fold change /veh 11762660_at / RFU VCAN (11757783_s_at) / Fold change /veh VCAN (11757783_s_at) / RFU DDX43 (11728927_at) / Fold change /veh DDX43 (11728927_at) / RFU KRT8 (11758188_x_at) / Fold change /veh KRT8 (11758188_x_at) / RFU NKD1 (11759106_at) / Fold change /veh NKD1 (11759106_at) / RFU SRD5A1 (11742802_a_at) / Fold change /veh SRD5A1 (11742802_a_at) / RFU TPSAB1 /// TPSB2 (11721975_s_at) / Fold change /veh TPSAB1 /// TPSB2 (11721975_s_at) / RFU GSTM3 (11746129_a_at) / Fold change /veh GSTM3 (11746129_a_at) / RFU IL23R (11737362_x_at) / Fold change /veh IL23R (11737362_x_at) / RFU TMEM51 (11727254_a_at) / Fold change /veh TMEM51 (11727254_a_at) / RFU PIWIL2 (11732686_x_at) / Fold change /veh PIWIL2 (11732686_x_at) / RFU ORM1 (11744905_x_at) / Fold change /veh ORM1 (11744905_x_at) / RFU CCDC152 (11743942_at) / Fold change /veh CCDC152 (11743942_at) / RFU ECM1 (11717891_a_at) / Fold change /veh ECM1 (11717891_a_at) / RFU IL23R (11748794_a_at) / Fold change /veh IL23R (11748794_a_at) / RFU TNFAIP8L3 (11732012_x_at) / Fold change /veh TNFAIP8L3 (11732012_x_at) / RFU MBOAT4 (11741988_at) / Fold change /veh MBOAT4 (11741988_at) / RFU 11764193_at / Fold change /veh 11764193_at / RFU TMEM53 (11763286_at) / Fold change /veh TMEM53 (11763286_at) / RFU MAGEB2 (11727129_at) / Fold change /veh MAGEB2 (11727129_at) / RFU TMEM200A (11744735_a_at) / Fold change /veh TMEM200A (11744735_a_at) / RFU CCDC152 (11751479_a_at) / Fold change /veh CCDC152 (11751479_a_at) / RFU FAM211A (11726209_a_at) / Fold change /veh FAM211A (11726209_a_at) / RFU RGS16 (11746705_a_at) / Fold change /veh RGS16 (11746705_a_at) / RFU VCAN (11755009_s_at) / Fold change /veh VCAN (11755009_s_at) / RFU RHOB (11743442_s_at) / Fold change /veh RHOB (11743442_s_at) / RFU RGS16 (11720943_a_at) / Fold change /veh RGS16 (11720943_a_at) / RFU RGS16 (11720944_at) / Fold change /veh RGS16 (11720944_at) / RFU, VPS4B / Fold change vs veh, VPS4B / RFU, CREB1 / Fold change vs veh, CREB1 / RFU, DNAJC13 / Fold change vs veh, DNAJC13 / RFU, GNAQ / Fold change vs veh, GNAQ / RFU, CDK5R1 / Fold change vs veh, CDK5R1 / RFU, ZRANB3 / Fold change vs veh, ZRANB3 / RFU, CUL4A / Fold change vs veh, CUL4A / RFU, CCNY / Fold change vs veh, CCNY / RFU, UFL1 / Fold change vs veh, UFL1 / RFU, COG3 / Fold change vs veh, COG3 / RFU, DIAPH2 / Fold change vs veh, DIAPH2 / RFU, SKA2 / Fold change vs veh, SKA2 / RFU, AFF3 / Fold change vs veh, AFF3 / RFU, LMF1 / Fold change vs veh, LMF1 / RFU, IPO11 / Fold change vs veh, IPO11 / RFU, DFFB / Fold change vs veh, DFFB / RFU, FOXP1 / Fold change vs veh, FOXP1 / RFU, CARD8 / Fold change vs veh, CARD8 / RFU, STRN3 / Fold change vs veh, STRN3 / RFU, ADK / Fold change vs veh, ADK / RFU, RASSF2 / Fold change vs veh, RASSF2 / RFU, WIPF1 / Fold change vs veh, WIPF1 / RFU, LARP1B / Fold change vs veh, LARP1B / RFU, RASA1 / Fold change vs veh, RASA1 / RFU, RB1 / Fold change vs veh, RB1 / RFU, PPFIA1 / Fold change vs veh, PPFIA1 / RFU, MAT2A / Fold change vs veh, MAT2A / RFU, CCT5 / Fold change vs veh, CCT5 / RFU, WDR92 / Fold change vs veh, WDR92 / RFU, CUX1 / Fold change vs veh, CUX1 / RFU, TTC7A / Fold change vs veh, TTC7A / RFU, TMEM135 / Fold change vs veh, TMEM135 / RFU, DEPTOR / Fold change vs veh, DEPTOR / RFU, CPM / Fold change vs veh, CPM / RFU, DNAJB6 / Fold change vs veh, DNAJB6 / RFU, CACNA2D3 / Fold change vs veh, CACNA2D3 / RFU, DTX4 / Fold change vs veh, DTX4 / RFU, TFCP2 / Fold change vs veh, TFCP2 / RFU, GMCL1 /// GMCL1P1 / Fold change vs veh, GMCL1 /// GMCL1P1 / RFU, AEBP2 / Fold change vs veh, AEBP2 / RFU, SNHG1 /// SNORD22 /// SNORD25 /// SNORD26 /// SNORD27 /// SNORD28 /// SNORD29 /// SNORD31 / Fold change vs veh, SNHG1 /// SNORD22 /// SNORD25 /// SNORD26 /// SNORD27 /// SNORD28 /// SNORD29 /// SNORD31 / Fold change (Aza/veh), C12orf56 (ProbeSet 11735607_a_at) / Fold change (ACY-1035/veh), C12orf56 (ProbeSet 11735607_a_at) / Fold change (Aza/veh), FGFR1OP (ProbeSet 11751329_s_at) / Fold change (ACY-1035/veh), FGFR1OP (ProbeSet 11751329_s_at) / Fold change (Aza/veh), VPS36 (ProbeSet 11739960_a_at) / Fold change (ACY-1035/veh), VPS36 (ProbeSet 11739960_a_at) / RFU SYPL1 (11715823_x_at) / Fold change /veh SYPL1 (11715823_x_at) / RFU IGFBP7 (11715501_s_at) / Fold change /veh IGFBP7 (11715501_s_at) / RFU REEP3 (11722064_at) / Fold change /veh REEP3 (11722064_at) / RFU IGLL1 (11728026_x_at) / Fold change /veh IGLL1 (11728026_x_at): dose or concentration left out as unconfirmed
Conditions: ProbeSet 11718701_a_at; LIST B

Compound: Nc1ncn([C@@H]2O[C@H](CO)[C@@H](O)[C@H]2O)c(=O)n1 [azacitidine]
- Fold change vs veh, ARFIP1: 1.05
